Results reported in US10906876B2, “Tetrahydroisoquinolines as selective NADPH oxidase 2 inhibitors” (University of Pittsburgh—Of the Commonwealth System of …, priority 2013, dated 2021).

Legend:
Format in all cases: cell-based
[1] = test system: human pulmonary artery endothelial cells (HPAEC); assay: Superoxide production of HPAEC treated with high glucose; details: 25 mM glucose 24 hr, 25 μM compound
Experimental: (§1) Cos-Nox2, Cos-Nox1, human fibroblasts were cultured in DMEM, 10% FBS-supplemented media, human pulmonary artery endothelial cells were cultured in EBM2media containing growth factors (Lonza) and rat neonatal cardiomyocytes were cultured in DMEM/F12 (50/50) media supplemented with 5% horse serum, 100 μM BrdU and Insulin-Transferrin-Selenium (ITS, Gibco).
Superoxide (O2^•−) production from cell homogenates was calculated from the initial linear rate (over 10 min) of SOD-inhibitable cytochrome c reduction quantified at 550 nm using the extinction coefficient of 21.1 mM-1 cm-1 (Biotek Synergy 4 Hybrid Multi-Mode Microplate Reader). The oxidase assay buffer consisted of 65 mM sodium phosphate buffer (pH 7.0), 1 mM EGTA, 10 μM FAD, 1 mM MgCl2, 2 mM NaN3 and 0.2 mM cytochrome C.
Compounds 11g and 11h subsequently were tested in parenchymal cell lines where more than one Nox could be present and activated. Human pulmonary artery endothelial cells (HPAEC) were treated with high glucose (25 mM) for 24 hr in the presence or absence of the compounds. […] Under these conditions both compounds 11g and 11h attenuated the high glucose-stimulated superoxide production (FIG. 9).

[2] = test system: human fibroblasts; assay: PMA-stimulated ROS production by human fibroblasts; details: 10 μM compound
Experimental: as §1
Compounds 11g and 11h also were evaluated for potential inhibitory activity in phorbol ester (PMA)-stimulated ROS production by human fibroblasts. As expected PMA, an activator of protein kinase C, stimulated superoxide production. This effect was attenuated by both compounds at a concentration of 10 μM (FIG. 11).

[3] = target: T1, Nox2 (Homo sapiens, UniProt P04839); assay: ROS production of transiently Nox2-transfected Cos cells treated with PMA; details: 10 μM compound
T1 construct: expressed in transfected cells
T1 sequence (P04839 2-570 limits assumed): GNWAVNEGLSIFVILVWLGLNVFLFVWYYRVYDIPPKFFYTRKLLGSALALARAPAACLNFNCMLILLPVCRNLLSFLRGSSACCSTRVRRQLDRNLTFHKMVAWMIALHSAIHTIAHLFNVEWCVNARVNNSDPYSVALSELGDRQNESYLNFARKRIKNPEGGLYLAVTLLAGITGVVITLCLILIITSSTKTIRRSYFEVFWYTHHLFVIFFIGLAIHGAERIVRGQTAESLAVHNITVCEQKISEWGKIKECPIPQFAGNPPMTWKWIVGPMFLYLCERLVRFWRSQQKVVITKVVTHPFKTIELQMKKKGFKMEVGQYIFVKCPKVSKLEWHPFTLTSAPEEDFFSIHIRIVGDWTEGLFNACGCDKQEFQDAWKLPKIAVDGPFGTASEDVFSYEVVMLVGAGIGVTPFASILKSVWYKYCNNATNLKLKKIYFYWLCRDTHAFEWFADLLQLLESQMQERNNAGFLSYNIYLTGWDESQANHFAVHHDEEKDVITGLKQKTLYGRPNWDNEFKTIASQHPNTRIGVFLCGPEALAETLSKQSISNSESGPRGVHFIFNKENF
Experimental: Cell transfection was carried out using Lipofectamine LTX and Plus reagent (Invitrogen, Carlsbad, Calif., USA), according to the manufacturer's instructions. COS-22 cells were transiently co-transfected with pcDNA 3.1-hNox1, pCMVsport 6-hNOXA1 and pcDNA3.1-hNoxO1 (COS-Nox1/NOXO1/NOXA1 cells) or with pcDNA3.1/Hygro-hNox4 (COS-Nox4 cells). Cells were used 24 hr after transfection. Adherent cells were harvested by incubating with 0.05% trypsin/EDTA for 5 min at 37° C. Following addition of DMEM/10% FBS to neutralize the trypsin, the cells were pelleted by centrifugation at 1100×g for 5 min at 4° C. and used for the experiments.
Since p47^phox activation is important not only for Nox2 activity but also for Nox1 hybrid system present mainly in human endothelial cells, the effect of compounds 11g and 11h on ROS production of transiently Nox2-transfected (FIG. 13) or Nox1 hybrid system-transfected Cos cells (FIG. 14) treated with phorbol ester (PMA) was evaluated.

SMILES	High glucose-stimulated superoxide production [1]	PMA-stimulated superoxide production [2]	PMA-stimulated ROS production, Nox2-transfected Cos cells [3]
C=C(C)CC1C2c3c(Br)cccc3C(CC2(C)C)N1CCCCC (racemic) [Compound 11g, (±)-(1S,4R,9S)-5-Bromo-3,3-dimethyl-9-(2-methylallyl-10-pentyl-1,2,3,4-tetrahydro-1,4-(epiminomethano)naphthalene]	attenuated	attenuated	inhibited
C=C(C)CC1C2c3c(Br)cccc3C(CC2(C)C)N1Cc1cccs1 (racemic) [Compound 11h, (±)-(1S,4R,9S)-5-Bromo-3,3-dimethyl-9-(2-methylallyl)-10-(thiophen-2-ylmethyl)-1,2,3,4-tetrahydro-1,4-(epiminomethano)naphthalene]	attenuated	attenuated	
